Data taken from PMC5564600 (Oncotarget, 2017).

How the values were obtained:
Assay in all cases: biochemical
Assay type in all cases: binding
panel of 442 kinases [1] = target: T1, panel of 442 kinases (Homo sapiens, UniProt O75716); details: kinase STK16; for remaining activity at 1 µM: read-out: STK16 (% of control at 1 µM)
T1 construct: purchased Ambit Biosciences (scanMAXX KINOMEscan)

panel of 442 kinases [2] = target: T2, panel of 442 kinases (Homo sapiens, UniProt P15735); details: kinase PHKG2; for remaining activity at 1 µM: read-out: % of control at 1 µM
T2 construct: purchased Ambit Biosciences (scanMAXX KINOMEscan)
T2 sequence (P15735 1-406): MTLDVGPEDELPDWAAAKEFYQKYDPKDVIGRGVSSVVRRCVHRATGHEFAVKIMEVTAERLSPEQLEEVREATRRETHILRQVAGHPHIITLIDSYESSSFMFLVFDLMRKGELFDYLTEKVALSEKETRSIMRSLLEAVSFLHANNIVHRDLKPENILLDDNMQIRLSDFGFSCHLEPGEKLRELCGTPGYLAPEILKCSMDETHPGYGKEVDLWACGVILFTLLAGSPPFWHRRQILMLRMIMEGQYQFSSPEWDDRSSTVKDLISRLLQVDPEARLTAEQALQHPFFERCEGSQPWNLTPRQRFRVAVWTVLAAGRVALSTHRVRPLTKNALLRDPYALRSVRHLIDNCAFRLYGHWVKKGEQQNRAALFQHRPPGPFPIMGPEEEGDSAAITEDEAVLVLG

panel of 442 kinases [3] = target: T3, panel of 442 kinases (Homo sapiens, UniProt Q08345); details: DDR1; for remaining activity at 1 µM: read-out: % of control at 1 µM
T3 construct: purchased Ambit Biosciences (scanMAXX KINOMEscan)
T3 sequence (Q08345 19-913): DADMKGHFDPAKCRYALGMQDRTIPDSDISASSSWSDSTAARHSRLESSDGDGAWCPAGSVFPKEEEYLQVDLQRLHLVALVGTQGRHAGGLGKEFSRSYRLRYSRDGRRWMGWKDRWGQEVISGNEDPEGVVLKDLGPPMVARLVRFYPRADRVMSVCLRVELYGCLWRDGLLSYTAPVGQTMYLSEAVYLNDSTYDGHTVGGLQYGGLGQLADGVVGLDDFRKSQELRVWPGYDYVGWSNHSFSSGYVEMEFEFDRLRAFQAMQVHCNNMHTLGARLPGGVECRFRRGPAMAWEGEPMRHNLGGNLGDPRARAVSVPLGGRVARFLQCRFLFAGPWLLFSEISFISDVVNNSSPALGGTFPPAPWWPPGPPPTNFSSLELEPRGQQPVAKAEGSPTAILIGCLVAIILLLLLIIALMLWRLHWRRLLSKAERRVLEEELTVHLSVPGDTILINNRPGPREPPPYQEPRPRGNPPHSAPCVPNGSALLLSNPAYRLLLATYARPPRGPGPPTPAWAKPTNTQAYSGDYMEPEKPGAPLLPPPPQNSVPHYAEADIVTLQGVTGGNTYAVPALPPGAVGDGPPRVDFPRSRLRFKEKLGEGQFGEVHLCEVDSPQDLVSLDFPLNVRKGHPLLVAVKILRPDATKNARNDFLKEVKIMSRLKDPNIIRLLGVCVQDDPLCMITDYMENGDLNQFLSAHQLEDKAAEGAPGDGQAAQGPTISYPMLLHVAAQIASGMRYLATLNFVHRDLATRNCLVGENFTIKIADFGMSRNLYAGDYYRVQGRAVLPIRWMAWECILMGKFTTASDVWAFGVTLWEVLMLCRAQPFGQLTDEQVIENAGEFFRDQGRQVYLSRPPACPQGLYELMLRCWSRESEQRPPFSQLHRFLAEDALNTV

panel of 442 kinases [4] = target: T4, panel of 442 kinases (Homo sapiens, UniProt Q8IVH8); details: kinase MAP4K3; for remaining activity at 1 µM: read-out: % of control at 1 µM
T4 construct: purchased Ambit Biosciences (scanMAXX KINOMEscan)
T4 sequence (Q8IVH8 1-894): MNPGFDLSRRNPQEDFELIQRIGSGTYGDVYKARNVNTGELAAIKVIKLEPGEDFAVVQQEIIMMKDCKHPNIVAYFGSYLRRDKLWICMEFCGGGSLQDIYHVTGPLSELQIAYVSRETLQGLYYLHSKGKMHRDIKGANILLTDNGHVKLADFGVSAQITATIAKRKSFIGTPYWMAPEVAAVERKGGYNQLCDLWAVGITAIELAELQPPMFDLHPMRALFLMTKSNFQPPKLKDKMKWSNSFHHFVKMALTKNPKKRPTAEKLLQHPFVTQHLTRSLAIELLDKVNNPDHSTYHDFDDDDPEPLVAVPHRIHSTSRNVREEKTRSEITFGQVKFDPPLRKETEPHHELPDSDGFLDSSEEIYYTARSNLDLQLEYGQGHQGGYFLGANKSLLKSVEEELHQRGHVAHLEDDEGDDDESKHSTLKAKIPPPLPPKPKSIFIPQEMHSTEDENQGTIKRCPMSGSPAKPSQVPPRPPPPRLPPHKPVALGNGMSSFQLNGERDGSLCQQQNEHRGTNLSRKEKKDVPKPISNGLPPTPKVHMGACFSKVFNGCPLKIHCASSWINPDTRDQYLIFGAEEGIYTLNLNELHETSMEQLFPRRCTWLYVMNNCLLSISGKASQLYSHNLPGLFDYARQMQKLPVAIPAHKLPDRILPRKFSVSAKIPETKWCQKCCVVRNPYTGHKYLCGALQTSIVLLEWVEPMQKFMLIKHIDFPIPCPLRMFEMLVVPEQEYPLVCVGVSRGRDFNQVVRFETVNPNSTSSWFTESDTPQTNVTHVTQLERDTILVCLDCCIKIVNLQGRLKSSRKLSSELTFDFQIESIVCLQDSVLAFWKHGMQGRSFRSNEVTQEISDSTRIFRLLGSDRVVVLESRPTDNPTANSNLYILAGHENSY

panel of 442 kinases [5] = target: T5, panel of 442 kinases (Homo sapiens, UniProt Q8IW41); details: kinase MAPKAPK5; for remaining activity at 1 µM: read-out: % of control at 1 µM
T5 construct: purchased Ambit Biosciences (scanMAXX KINOMEscan)
T5 sequence (Q8IW41 1-473): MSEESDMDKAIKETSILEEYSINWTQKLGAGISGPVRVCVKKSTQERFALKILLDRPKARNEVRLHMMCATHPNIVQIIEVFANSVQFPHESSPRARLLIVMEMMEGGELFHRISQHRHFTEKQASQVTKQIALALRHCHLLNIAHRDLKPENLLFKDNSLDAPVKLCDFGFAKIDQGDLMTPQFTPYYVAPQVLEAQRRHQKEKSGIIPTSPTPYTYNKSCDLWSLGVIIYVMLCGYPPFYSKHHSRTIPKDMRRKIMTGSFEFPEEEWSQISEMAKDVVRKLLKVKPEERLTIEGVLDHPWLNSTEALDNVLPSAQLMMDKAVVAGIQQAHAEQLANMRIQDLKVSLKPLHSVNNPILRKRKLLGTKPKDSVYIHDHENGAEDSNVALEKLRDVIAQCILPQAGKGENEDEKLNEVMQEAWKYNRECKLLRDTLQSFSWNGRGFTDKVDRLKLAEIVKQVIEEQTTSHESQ

[6] = 10 µM, read-out: % of control at 10 µM

T1 sequence (O75716 whole entry): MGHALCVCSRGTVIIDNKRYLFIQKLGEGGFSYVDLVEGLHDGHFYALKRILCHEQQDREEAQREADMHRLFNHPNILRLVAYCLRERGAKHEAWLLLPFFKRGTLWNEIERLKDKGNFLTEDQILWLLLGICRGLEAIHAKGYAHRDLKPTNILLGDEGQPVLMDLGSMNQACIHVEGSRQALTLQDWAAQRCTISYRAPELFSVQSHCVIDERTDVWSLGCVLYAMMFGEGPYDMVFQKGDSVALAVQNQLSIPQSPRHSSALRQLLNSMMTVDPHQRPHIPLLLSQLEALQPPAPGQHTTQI

SMILES | remaining activity at 1 µM (panel of 442 kinases [1]) | remaining activity at 10 µM (panel of 442 kinases [1]; 10 µM, read-out: STK16 (% of control at 10 µM)) | remaining activity at 1 µM (panel of 442 kinases [2]) | remaining activity at 10 µM (panel of 442 kinases [2]; [6]) | remaining activity at 1 µM (panel of 442 kinases [3]) | remaining activity at 10 µM (panel of 442 kinases [3]; [6]) | remaining activity at 1 µM (panel of 442 kinases [4]) | remaining activity at 10 µM (panel of 442 kinases [4]; [6]) | remaining activity at 1 µM (panel of 442 kinases [5]) | remaining activity at 10 µM (panel of 442 kinases [5]; [6])
Nc1cc(C(F)(F)F)c(-c2cc(N3CCOCC3)nc(N3CCOCC3)n2)cn1 [Buparlisib] | 100% | 92% | 100% | 100% | 100% | 92% | 93% | 81% | 100% | 100%
Cn1c(=O)n(-c2ccc(C(C)(C)C#N)cc2)c2c3cc(-c4cnc5ccccc5c4)ccc3ncc21 [Dactolisib, 2-methyl-2-[4-(3-methyl-2-oxo-8-quinolin-3-yl-2,3-dihydroimidazo[4,5-c]quinolin-1-yl)-phenyl] propionitrile] | 100% | – | 100% | – | 100% | – | 30% | – | 100% | –
COc1ncc(-c2ccc3nccc(-c4ccnnc4)c3c2)cc1NS(=O)(=O)c1ccc(F)cc1F [Omipalisib] | 42% | – | 100% | – | 100% | – | 85% | – | 100% | –
FC(F)c1nc2ccccc2n1-c1nc(N2CCOCC2)nc(N2CCOCC2)n1 [ZSTK474, 2-(difluoromethyl)-1-[4,6-di(4-morpholinyl)-1,3,5-triazin-2-yl]-1H-benzimidazole] | 100% | – | 100% | – | 95% | – | 87% | – | 100% | –
